How the values were obtained:
[1] = system: T1, human CMG helicase (hCMG); test: hCMG helicase fork-unwinding (strand displacement) assay; type: biochemical
T1 construct: made in house; host or cells: High Five insect cells, baculovirus (11 viruses co-infected)
Method: The human CMG helicase was purified following the established and validated protocol of Hurwitz and colleagues(19,20), with minor modifications. A detailed description of the approach is shown here, to allow for comparisons to the methods described by the Hurwitz group.
High Five insect cells (2-3 million cells/ml, 1.5 L), were in cultured in a shaking incubator at 27° C. in suspension with ESF921 serum free medium (Expression Systems, CA; cat. #96-001-01), then co-infected for 60 hrs with 11 baculoviruses expressing human 6His2Flag-Cdc45, the human MCM hexamer (Mcm2, Mcm3, Mcm4, Mem5, Mcm6, Mcm7), and human GINS (GST-Sld5, Psf3, Psf2, and Psf1). Each virus was infected at an MOI of ~10 from individual virus stocks. Infected cells were harvested by centrifugation at 650×g for 5 min at 4° C., washed with cold PBS, frozen on dry ice, and stored at −80° C. until use. The cell pellet (~20 mL) was thawed on ice, resuspended in 45 ml Hypotonic Buffer [20 mM Hepes-NaOH (pH 7.5), 5 mM KCl, 1.5 mM MgCl2] with protease inhibitors (1 mM [COMPOUND LEFT OUT], 1 mM Benzamidine, 0.15 μM Aprotinin, 4 μM Leupeptin, and 1 μM Antipain), and kept on ice for 10 min before lysing by Dounce homogenization (tight fitting, 60 strokes). The cell extract was adjusted to 0.42 M potassium acetate and centrifuged at 43,000×g for 1 hr at 4° C. The cleared lysate was mixed with 0.75 ml glutathione beads (cat. #17-0756-05; GE Healthcare) pre-equilibrated with FEQ buffer [20 mM Hepes-NaOH (pH 7.5), 0.42 M potassium acetate, 5 mM KCl, 1.5 mM MgCl2] and incubated by rotation at 4° C. overnight. Following centrifugation at 290×g at 4° C., the bound glutathione beads were washed four times (15 min each wash) with 40 ml of FW buffer [20 mM Hepes-NaOH (pH 7.5), 0.42 M potassium acetate, 1 mM DTT, 1 mM EDTA, 0.01% NP40, 10% glycerol (vol/vol) with protease inhibitors as above] containing protease inhibitors (as above). Bound proteins were eluted at 4° C. three times (1 hr each elution) with 3.5 ml Q buffer [20 mM Hepes-NaOH (pH 7.5), 1 mM DTT, 1 mM EDTA, 0.01% NP40, 10% glycerol (vol/vol), and protease inhibitors as above] containing 0.15 M potassium acetate and 20 mM reduced glutathione. The eluted fractions were combined and applied to a HiTrap Q-Sepharose FF column (HiTrap Q FF 1 mL, cat. #17505301, Cytiva), pre-equilibrated 3× with 5 ml of Q buffer containing 0.15 M, 0.75 M, 0.15M potassium acetate, in sequence. The Q-Sepharose FF column was washed with 10 ml of FW buffer containing protease inhibitors (as above). The proteins were eluted with 10 ml of Q buffer containing 0.75 M potassium acetate. The eluted fraction was mixed with 0.15 ml of anti-Flag M2 affinity gel/beads and incubated while rotating at 4° C. overnight. After centrifugation at 290×g for 5 min at 4° C., the beads were washed three times with 10 ml PreScission buffer [50 mM Tris-HCl (pH 7.5), 0.15 M NaCl, 1 mM DTT, 1 mM EDTA] for 15 min at 4° C., and eluted at 4° C. three times (1 hr each elution) with 0.2 ml PreScission enzyme buffer containing 0.2 mg/ml 3×-Flag peptides. The combined eluates were incubated with 20 Units of PreScission Protease (GE Healthcare) and 0.1 mL glutathione beads for 4 hr at 4° C. The supernatant was layered onto a 15-40% glycerol gradient [25 mM Tris-HCl (pH 7.5), 50 mM NaCl, 1 mM DTT, 1 mM EDTA, 0.01% NP40, protease inhibitors as above] in a 5 mL ultra-centrifugation tube and centrifuged at 260,000×g for 14 hr at 4° C. Glycerol fractions (0.15 mL each fraction) were collected from bottom of tube and stored at −80° C. until use. Typically, fractions 6-9 contained complete hCMG (~750-800 kDa) and co-migrated with thyroglobulin.
Helicase fork-unwinding assays were performed at 37° C. for 1 hr in 20 μL reaction volumes using 2-4 μl of hCMG (~15-30 fmol), in a buffer consisting of 25 mM Hepes-NaOH (pH 7.5), 5 mM NaCl, 0.5 mM ATP, 10 mM magnesium acetate, 1 mM DTT, 0.1 mg/ml bovine serum albumin (BSA), and ~10 fmol of radiolabeled DNA forks (20). […]

[2] = system: MCM/CMG and replisome proteins in HaCaT cells; test: Immunoblots of chromatin-bound or total proteins, synchronized HaCaT cells; type: cell-based, human
HaCaT cells = test: BrdU labeling of DNA replication in synchronized HaCaT cells; type: cell-based, human; conditions: for DNA replication (BrdU), early G1 treatment: added at time 0, 15 μM; for DNA replication (BrdU), early S-phase treatment: treated at 18 hrs, analyzed 3 hrs later, CA1/novobiocin 15 μM, etoposide 5 μM
Method: Verification of synchronization and determination of drug effects was performed by measuring the incorporation of bromo-deoxyuridine (BrdU) into replicating foci within nuclei. At times indicated, cells were pulse-labeled with 15 μM BrdU for 30 min, fixed with 4% paraformaldehyde, and analyzed by standard immunofluorescent techniques(40,51) with an anti-BrdU monoclonal antibody (Roche, clone no. BMC9318, RRID:AB_2313622). The average counts of three fields of 100 or more cells were used to determine the percentages of BrdU-labeled nuclei, +/−1 s.d.

human Topoisomerase-II = test: Topoisomerase II decatenation assay; type: biochemical
Method: The Topoisomerase II drug screening kit (kDNA-based; TopoGEN, TG1009-1A) was used to assess in vitro Topo II enzyme activity according to the manufacture protocol. Assays were performed in […] reactions with 4 μL of 5× Assay Buffer (0.25 M Tris-HCl (pH 8), 10 mM ATP, 0.75 M NaCl, 50 mM MgCl2, 2.5 mM Dithiothreitol, 150 mg/ml BSA), 1 mL kDNA ([…]), 1 mL DMSO solvent or compounds at indicated concentrations, 1 mL Topoisomerase II (2 Units), 13 mL water. Assays were incubated at 37° C. for 30 min and stopped by addition of 2 mL 10% SDS and Proteinase K (50 mg/ml). After incubating at 37° C. for 15 min, samples were mixed with 1/10 volume of loading buffer and resolved on a 1% agarose gel.

[3] = treated at 18 hr (early S-phase)

T1 sequence (P49736 whole entry): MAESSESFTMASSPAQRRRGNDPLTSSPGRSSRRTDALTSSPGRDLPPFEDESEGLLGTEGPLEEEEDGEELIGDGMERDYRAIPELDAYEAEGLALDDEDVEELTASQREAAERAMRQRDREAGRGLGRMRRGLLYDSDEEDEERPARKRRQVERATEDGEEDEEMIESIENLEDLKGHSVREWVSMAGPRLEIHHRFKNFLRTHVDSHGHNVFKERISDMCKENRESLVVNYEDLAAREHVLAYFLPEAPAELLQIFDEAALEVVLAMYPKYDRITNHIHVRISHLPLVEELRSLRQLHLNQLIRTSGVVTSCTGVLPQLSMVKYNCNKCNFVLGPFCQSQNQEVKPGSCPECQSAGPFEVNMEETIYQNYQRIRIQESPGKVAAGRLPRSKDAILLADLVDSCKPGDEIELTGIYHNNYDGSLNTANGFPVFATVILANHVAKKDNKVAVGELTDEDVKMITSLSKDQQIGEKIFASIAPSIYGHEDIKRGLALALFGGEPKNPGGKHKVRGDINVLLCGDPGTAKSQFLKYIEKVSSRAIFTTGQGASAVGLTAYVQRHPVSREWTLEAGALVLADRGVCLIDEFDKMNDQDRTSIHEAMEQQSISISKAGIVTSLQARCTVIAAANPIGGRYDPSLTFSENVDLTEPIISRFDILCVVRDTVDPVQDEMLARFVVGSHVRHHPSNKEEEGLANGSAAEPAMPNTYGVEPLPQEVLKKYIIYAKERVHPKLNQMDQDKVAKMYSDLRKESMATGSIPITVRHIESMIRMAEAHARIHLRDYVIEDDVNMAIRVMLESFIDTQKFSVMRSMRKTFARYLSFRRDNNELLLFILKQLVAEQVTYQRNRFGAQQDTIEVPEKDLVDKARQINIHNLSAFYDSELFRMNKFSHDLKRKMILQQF
T1 sequence (P25205 whole entry, further chain): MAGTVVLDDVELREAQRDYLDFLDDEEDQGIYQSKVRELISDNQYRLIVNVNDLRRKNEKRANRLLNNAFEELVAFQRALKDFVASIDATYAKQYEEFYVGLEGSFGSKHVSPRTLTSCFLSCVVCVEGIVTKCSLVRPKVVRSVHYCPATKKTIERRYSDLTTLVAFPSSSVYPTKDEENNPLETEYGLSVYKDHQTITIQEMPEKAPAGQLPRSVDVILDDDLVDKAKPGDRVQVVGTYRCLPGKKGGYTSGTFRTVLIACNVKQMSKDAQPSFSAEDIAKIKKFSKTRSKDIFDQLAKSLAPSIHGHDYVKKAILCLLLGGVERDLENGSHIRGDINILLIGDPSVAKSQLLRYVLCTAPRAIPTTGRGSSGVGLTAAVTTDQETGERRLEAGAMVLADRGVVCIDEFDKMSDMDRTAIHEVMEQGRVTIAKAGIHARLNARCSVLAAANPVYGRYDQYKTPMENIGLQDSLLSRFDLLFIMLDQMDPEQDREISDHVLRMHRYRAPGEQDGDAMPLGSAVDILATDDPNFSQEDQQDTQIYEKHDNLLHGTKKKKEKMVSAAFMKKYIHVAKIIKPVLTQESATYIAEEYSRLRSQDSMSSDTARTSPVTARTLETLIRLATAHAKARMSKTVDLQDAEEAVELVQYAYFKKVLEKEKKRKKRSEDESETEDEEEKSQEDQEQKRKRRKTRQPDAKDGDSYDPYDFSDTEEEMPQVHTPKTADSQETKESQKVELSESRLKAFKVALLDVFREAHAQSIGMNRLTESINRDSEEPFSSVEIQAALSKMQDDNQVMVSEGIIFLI
T1 sequence (P33991 whole entry, further chain): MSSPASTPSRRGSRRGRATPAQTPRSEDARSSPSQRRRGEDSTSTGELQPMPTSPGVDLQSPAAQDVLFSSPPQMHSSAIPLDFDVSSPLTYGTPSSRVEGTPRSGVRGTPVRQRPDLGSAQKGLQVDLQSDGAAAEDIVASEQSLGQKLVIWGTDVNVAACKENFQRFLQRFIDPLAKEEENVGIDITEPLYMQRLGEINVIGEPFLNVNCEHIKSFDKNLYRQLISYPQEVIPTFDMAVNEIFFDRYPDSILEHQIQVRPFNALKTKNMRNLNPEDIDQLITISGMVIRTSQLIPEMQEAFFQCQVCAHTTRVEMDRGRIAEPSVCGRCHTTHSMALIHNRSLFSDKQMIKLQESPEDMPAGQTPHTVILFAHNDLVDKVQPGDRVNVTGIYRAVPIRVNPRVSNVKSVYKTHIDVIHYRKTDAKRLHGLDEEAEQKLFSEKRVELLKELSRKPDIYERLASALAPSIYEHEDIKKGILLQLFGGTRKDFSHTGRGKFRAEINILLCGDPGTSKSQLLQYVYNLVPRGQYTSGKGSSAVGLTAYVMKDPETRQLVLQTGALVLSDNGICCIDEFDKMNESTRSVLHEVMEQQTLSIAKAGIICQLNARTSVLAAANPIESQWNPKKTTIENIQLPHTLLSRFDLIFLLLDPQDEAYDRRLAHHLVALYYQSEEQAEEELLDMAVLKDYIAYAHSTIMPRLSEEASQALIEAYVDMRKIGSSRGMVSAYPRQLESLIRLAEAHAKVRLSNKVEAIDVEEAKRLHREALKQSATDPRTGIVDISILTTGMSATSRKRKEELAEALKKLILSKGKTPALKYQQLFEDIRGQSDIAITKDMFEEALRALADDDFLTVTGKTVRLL
T1 sequence (P33992 whole entry, further chain): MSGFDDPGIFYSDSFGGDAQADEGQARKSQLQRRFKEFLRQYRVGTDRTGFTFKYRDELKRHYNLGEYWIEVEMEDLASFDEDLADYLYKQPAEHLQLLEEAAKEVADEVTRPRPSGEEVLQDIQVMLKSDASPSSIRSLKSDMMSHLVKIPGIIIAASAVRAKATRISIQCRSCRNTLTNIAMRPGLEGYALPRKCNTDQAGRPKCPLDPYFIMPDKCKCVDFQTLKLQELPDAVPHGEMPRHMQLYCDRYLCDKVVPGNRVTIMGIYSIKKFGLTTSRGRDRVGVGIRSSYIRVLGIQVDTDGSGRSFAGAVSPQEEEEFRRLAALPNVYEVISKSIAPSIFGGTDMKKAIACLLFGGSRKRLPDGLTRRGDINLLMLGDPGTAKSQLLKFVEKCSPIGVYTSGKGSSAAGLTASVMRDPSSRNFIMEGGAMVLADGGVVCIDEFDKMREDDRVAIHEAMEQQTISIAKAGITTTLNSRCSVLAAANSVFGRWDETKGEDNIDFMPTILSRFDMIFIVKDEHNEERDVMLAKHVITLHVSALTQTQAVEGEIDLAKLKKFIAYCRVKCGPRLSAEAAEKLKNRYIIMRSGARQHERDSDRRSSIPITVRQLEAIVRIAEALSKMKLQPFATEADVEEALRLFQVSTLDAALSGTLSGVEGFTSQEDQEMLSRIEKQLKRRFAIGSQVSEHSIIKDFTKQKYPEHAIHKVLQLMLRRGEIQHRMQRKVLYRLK
T1 sequence (Q14566 whole entry, further chain): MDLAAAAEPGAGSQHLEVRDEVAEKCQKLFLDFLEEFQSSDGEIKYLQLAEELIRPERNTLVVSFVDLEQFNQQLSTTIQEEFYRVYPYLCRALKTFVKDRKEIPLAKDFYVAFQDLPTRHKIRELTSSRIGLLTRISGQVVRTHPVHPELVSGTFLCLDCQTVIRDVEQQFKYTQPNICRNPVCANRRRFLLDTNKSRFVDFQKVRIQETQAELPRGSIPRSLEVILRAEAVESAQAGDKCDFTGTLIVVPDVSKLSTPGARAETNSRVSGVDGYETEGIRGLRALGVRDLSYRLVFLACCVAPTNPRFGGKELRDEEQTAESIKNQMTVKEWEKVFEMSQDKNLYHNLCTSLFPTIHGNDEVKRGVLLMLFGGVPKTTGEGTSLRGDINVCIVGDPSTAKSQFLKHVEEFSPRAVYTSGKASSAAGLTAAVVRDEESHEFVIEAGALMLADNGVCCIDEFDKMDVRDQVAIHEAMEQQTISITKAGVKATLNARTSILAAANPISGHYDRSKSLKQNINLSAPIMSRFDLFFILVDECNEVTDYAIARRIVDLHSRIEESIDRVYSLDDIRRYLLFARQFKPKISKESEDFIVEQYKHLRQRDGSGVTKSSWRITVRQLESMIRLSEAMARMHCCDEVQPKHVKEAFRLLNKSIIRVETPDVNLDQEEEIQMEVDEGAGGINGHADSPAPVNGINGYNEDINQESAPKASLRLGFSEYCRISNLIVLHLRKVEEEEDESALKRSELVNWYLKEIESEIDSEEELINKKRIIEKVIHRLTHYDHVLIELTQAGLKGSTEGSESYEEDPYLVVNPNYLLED
T1 sequence (P33993 whole entry, further chain): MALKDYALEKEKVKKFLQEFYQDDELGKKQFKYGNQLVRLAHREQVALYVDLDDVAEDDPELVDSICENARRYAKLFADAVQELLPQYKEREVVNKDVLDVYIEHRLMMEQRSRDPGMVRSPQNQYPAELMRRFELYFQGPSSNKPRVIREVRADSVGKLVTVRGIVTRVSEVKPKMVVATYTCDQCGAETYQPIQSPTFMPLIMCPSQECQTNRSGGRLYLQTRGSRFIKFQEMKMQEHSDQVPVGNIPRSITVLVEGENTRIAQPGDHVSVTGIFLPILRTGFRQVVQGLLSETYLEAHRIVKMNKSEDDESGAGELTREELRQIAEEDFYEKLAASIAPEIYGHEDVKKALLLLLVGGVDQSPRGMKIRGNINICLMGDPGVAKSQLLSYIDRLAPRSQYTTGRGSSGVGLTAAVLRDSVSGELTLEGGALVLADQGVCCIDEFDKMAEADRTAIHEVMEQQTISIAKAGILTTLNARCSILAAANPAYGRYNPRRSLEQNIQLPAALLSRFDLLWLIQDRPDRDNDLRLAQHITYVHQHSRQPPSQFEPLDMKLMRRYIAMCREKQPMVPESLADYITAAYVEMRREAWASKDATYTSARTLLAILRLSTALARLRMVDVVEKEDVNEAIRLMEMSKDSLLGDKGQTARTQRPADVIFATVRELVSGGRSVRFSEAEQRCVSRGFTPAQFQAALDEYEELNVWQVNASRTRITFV

**Q.** How did the “hCMG helicase inhibition in secondary strand-displacement assay” value ([1]; 500 μM compound) turn out when `CO[C@@H]1[C@@H](OC(=O)c2ccc(C)[nH]2)[C@@H](O)[C@H](Oc2ccc3c(O)c(NC(=O)c4c[nH]c(C(=O)Nc5c(O)c6ccc(O[C@@H]7OC(C)(C)[C@H](OC)[C@@H](OC(=O)c8ccc(C)[nH]8)[C@H]7O)c(C)c6oc5=O)c4C)c(=O)oc3c2C)OC1(C)C` [CA1] was run?
**A.** effective hCMG helicase inhibitors

**Q.** And the “inhibition of hCMG helicase activity, SAR set” value ([1]; 500 μM compound)?
**A.** potently inhibit the hCMG

**Q.** What about the “hCMG helicase activity inhibition” value ([1]; fork-unwinding, ~15 fmol hCMG, 0.5 mM ATP) of the same compound?
**A.** 100%

**Q.** What about the “mode of inhibition of hCMG helicase activity” value ([1]; role: inhibitor, CA1 2.5 μM, increasing ATP) of the same compound?
**A.** classic ATP-competitive mechanism

**Q.** What about the “Ctf4 and Mcm10 on chromatin” value ([2]; S-phase cells) of the same compound?
**A.** reduced on chromatin

**Q.** And the “DNA polymerases-a, -d and -e on chromatin” value ([2]; S-phase cells)?
**A.** caused a loss of DNA polymerases-a, -d, and -e from chromatin

**Q.** What about the RPA on chromatin ([2]; S-phase cells) of the same compound?
**A.** reduced on chromatin

**Q.** And the “GINS and Cdc45 loading onto chromatin” value ([2]; early-G1 treatment)?
**A.** blocked

**Q.** What about the Orc2 chromatin binding ([2]; early-G1 treatment) of the same compound?
**A.** not affected

**Q.** What about the “MCM loading onto chromatin” value ([2]; early-G1 treatment, assessed 18 hrs) of the same compound?
**A.** significantly inhibited

**Q.** And the Cdc45 recruitment ([2]; late-G1 treatment (12 hrs))?
**A.** not appreciably affected

**Q.** What about the Cdt1 dynamics ([2]; late-G1 treatment (12 hrs)) of the same compound?
**A.** does not affect Cdt1 dynamics

**Q.** And the “GINS recruitment to DNA-loaded MCM hexamers” value ([2]; late-G1 treatment (12 hrs))?
**A.** inhibits GINS recruitment to DNA-loaded MCM hexamers

**Q.** What about the “remainder of MCM loading” value ([2]; late-G1 treatment (12 hrs)) of the same compound?
**A.** only a small effect, if any

**Q.** And the “Cdc6 chromatin association, polyclonal antibody” value ([2]; middle G1 exposure)?
**A.** not affected in chromatin association

**Q.** What about the “Cdc6 form on chromatin, monoclonal antibody” value ([2]; middle G1 exposure) of the same compound?
**A.** sensitive to CA1

**Q.** And the “Orc2 and Orc4 affinity for chromatin” value ([2]; middle G1 exposure)?
**A.** not affected

**Q.** What about the “Cdt1 loading on chromatin” value ([2]; treated at 6 hrs (middle G1)) of the same compound?
**A.** blocks this Cdt1 loading

**Q.** And the “MCMs already loaded on chromatin” value ([2]; treated at 6 hrs (middle G1))?
**A.** does not affect MCMs already loaded

**Q.** What about the “increase in MCM loading at 12 hrs” value ([2]; treated at 6 hrs (middle G1)) of the same compound?
**A.** inhibited by CA1

**Q.** What about the “total Cdt1” value ([2]; treated at 6 hrs (middle G1)) of the same compound?
**A.** promotes loss of total Cdt1

**Q.** What about the “GINS and Cdc45 chromatin association” value [2, 3] of the same compound?
**A.** notably suppressed

**Q.** And the “total protein levels of Psf3 and Cdc45” value [2, 3]?
**A.** slightly affected

**Q.** What about the “DNA replication (BrdU), early G1 treatment” value (HaCaT cells) of the same compound?
**A.** inhibits DNA replication

**Q.** What about the “DNA replication (BrdU), late-G1 treatment” value (HaCaT cells; treated at 12 hrs, assessed at 18 hrs) of the same compound?
**A.** fail to undergo DNA replication

**Q.** What about the “DNA replication (BrdU), early S-phase treatment” value (HaCaT cells) of the same compound?
**A.** effectively suppressed DNA replication

**Q.** What about the “CA1 concentration required for human Topo-II inhibition relative to that required to block CMG activity” value (human Topoisomerase-II; decatenation assay in vitro) of the same compound?
**A.** ~ 10 fold

**Q.** What about the “human Topoisomerase-II inhibition” value (human Topoisomerase-II; low concentrations used in cell-based experiments) of the same compound?
**A.** no inhibitory effect on human Topoisomerase-II at low concentrations

**Q.** `CO[C@@H]1[C@@H](OC(N)=O)[C@@H](O)[C@H](Oc2ccc3c(O)c(NC(=O)c4ccc(O)c(CC=C(C)C)c4)c(=O)oc3c2C)OC1(C)C` [novobiocin] was tested. Which “inhibition of hCMG helicase activity, SAR set” value ([1]; 500 μM compound) did it give?
**A.** only a small level of inhibition

**Q.** And the “increase in MCM loading at 12 hrs” value ([2]; treated at 6 hrs (middle G1))?
**A.** not by novobiocin

**Q.** What about the “DNA replication (BrdU), early G1 treatment” value (HaCaT cells) of the same compound?
**A.** little effect

**Q.** What about the “DNA replication (BrdU), early S-phase treatment” value (HaCaT cells) of the same compound?
**A.** did not

**Q.** What about the “human Topoisomerase-II inhibition” value (human Topoisomerase-II; 1 mM) of the same compound?
**A.** no effect at 1 mM

Reference: patent publication US20260306641A1, “HELICASE DEGRADERS” (priority 2023, published 2026)
